The experiment deals with T1, human FPTase (Homo sapiens, UniProt P49354+P49356).
T1 construct: made in house
In words: In vitro inhibition of Ras farnesyl transferase (FPTase inhibition assay). The settings on record: 30° C.; 650 nM Ras-CVLS, 100 nM farnesyl diphosphate; recombinant FPTase; read-out: IC50 for inhibitory activity against human FPTase. In kind it is biochemical. As for the experimental part: In Vitro Inhibition of Ras Farnesyl Transferase
Isoprenyl-protein transferase activity assays are carried out at 30° C. unless noted otherwise. A typical reaction contains (in a final volume of 50 μL): [^3 H]farnesyl diphosphate, Ras protein, 50 mM HEPES, pH 7.5, 5 mM MgCl2, 5 mM dithiothreitol, 10 μM ZnCl2, 0.1% polyethyleneglycol (PEG) (15,000-20,000 mw) and isoprenyl-protein transferase. The FPTase employed in the assay is prepared by recombinant expression as described in Omer, C. A., Kral, A. M., Diehl, R. E., Prendergast, G. C., Powers, S., Allen, C. M., Gibbs, J. B. and Kohl, N. E. (1993) Biochemistry 32:5167-5176. After thermally pre-equilibrating the assay mixture in the absence of enzyme, reactions are initiated by the addition of isoprenyl-protein transferase and stopped at timed intervals (typically 15 min) by the addition of 1 M HCl in ethanol (1 mL). The quenched reactions are allowed to stand for 15 m (to complete the precipitation process). After adding 2 mL of 100% ethanol, the reactions are vacuum-filtered through Whatman GF/C filters. Filters are washed four times with 2 mL aliquots of 100% ethanol, mixed with scintillation fluid (10 mL) and then counted in a Beckman LS3801 scintillation counter. […]

Where only a bound is given, the exact number is not on record here.

Turning to `CCC12CCCCN(C1)C(=O)CCc1cncn1Cc1ccc(C#N)c(c1)Oc1cccc2c1` (racemic) [Example 1, (±) 5H-17-Ethyl-17,22-methano-18,19,20,21,23,24-hexahydro-23-oxo-6,10: 12,16-dimetheno-25H-imidazo[3,4-h]-[1,11,16]oxadiazacyclodocosane-9-carbonitrile], the IC50 is at most 10 µM.

As usually defined, the IC50 is the concentration that inhibits the measured activity by half.

The values above are taken from US6316436A, “Inhibitors of prenyl-protein transferase” (Merck & Co., Inc., priority 1999, dated 2001).
